From patent publication US20120065187A1 (ALCON RESEARCH, LTD, priority 2008, published 2012)
Where a name gives a salt, the structure may show the parent alone.

What was measured:
human H4 = target: T1, human H4 (Homo sapiens, UniProt Q9H3N8); assay: In vitro histamine receptor cell-based assay (aequorin bioluminescence), H4 antagonism; conditions: CHO-K1 cells expressing human H4, aequorin and Gα16; histamine at EC80; read-out: H4 Antagonist EC50
T1 construct: host or cells: CHO-K1
Experimental: (§1) The cell-based assays utilize an aequorin dependent bioluminescence signal. Doubly-transfected, stable CHO-K1 cell lines expressing human H1 or H4, mitochondrion-targeted aequorin, and (H4 only) human G protein Gα16 are obtained from Perkin-Elmer. Cells are maintained in F12 (Ham's) growth medium, containing 10% (vol./vol.) fetal bovine serum, penicillin (100 IU/mL), streptomycin (0.1 mg/mL), zeocin (0.25 mg/mL) and geneticin (0.40 mg/mL). Cell media components are from Invitrogen, Inc. One day prior to assay, the growth medium is replaced with the same, excluding zeocin and geneticin.
(§2) For assay preparation, growth medium is aspirated, and cells are rinsed with calcium-free, magnesium-free phosphate-buffered saline, followed by two to three minute incubation in Versene (Invitrogen, Inc.) at 37° C. Assay medium (DMEM:F12 [50:50], phenol-red free, containing 1 mg/mL protease-free bovine serum albumin) is added to collect the released cells, which are then centrifuged. The cell pellet is re-suspended in assay medium, centrifuged once more, and re-suspended in assay medium to a final density of 5×10^6 cells/mL. Coelenterazine-h dye (500 μM in ethanol) is added to a final concentration of 5 μM, and mixed immediately. The conical tube containing the cells is then wrapped with foil to protect the light-sensitive dye. The cells are incubated for four hours further at room temperature (approximately 21° C.) with end-over-end rotation to keep them in suspension.
Just before assay, the dye-loaded cells are diluted to 0.75×10^6 cells/mL (H1 receptor) or 1.5×10^6 cells/mL (H4 receptor) with additional assay medium. Cells are dispensed to 1536 well micro-titer plates at 3 μL/well. To assay receptor antagonism, 60 nl of 100× concentration test compounds in 100% dimethyl sulfoxide (DMSO) are dispensed to the wells, one compound per well, by passive pin transfer, and the plates are incubated for 15 minutes at room temperature. […] The pipette dispenses 3 μL/well of agonist (histamine, at twice the final concentration, where final concentration is a previously determined EC80) in assay medium, with concurrent bioluminescence detection. Agonist activity of test compounds is excluded by separate assays that measure response to test compounds immediately, without added histamine agonist.
(§3) CCD image capture on the Lumilux includes a 5 second baseline read prior to agonist addition, and generally a 40 second read per plate after agonist addition. A decrease in bioluminescence signal (measured either as area-under-the-curve, or maximum signal amplitude minus minimum signal amplitude) correlates with receptor antagonism in a dose dependent manner. The negative control is DMSO lacking any test compound. For antagonist assays, the positive controls are diphenhydramine (2-Diphenylmethoxy-N,N-dimethylethylamine, 10 μM final concentration, H1 receptor) or JNJ7777120 (1-[(5-Chloro-1H-indol-2-yl)carbonyl]-4-methyl-piperazine, 10 μM final concentration, H4 receptor). Efficacy is measured as a percentage of positive control activity.

human H1 = target: T2, human H1 (Homo sapiens, UniProt P35367); assay: In vitro histamine receptor cell-based assay (aequorin bioluminescence), H1 antagonism; conditions: CHO-K1 cells expressing human H1 and aequorin; histamine at EC80; read-out: H1 Antagonist EC50
T2 construct: host or cells: CHO-K1
Experimental: as §1, §2
Just before assay, the dye-loaded cells are diluted to 0.75×10^6 cells/mL (H1 receptor) or 1.5×10^6 cells/mL (H4 receptor) with additional assay medium. Cells are dispensed to 1536 well micro-titer plates at 3 μL/well. To assay receptor antagonism, 60 nl of 100× concentration test compounds in 100% dimethyl sulfoxide (DMSO) are dispensed to the wells, one compound per well, by passive pin transfer, and the plates are incubated for 15 minutes at room temperature. Assay plates are then transferred to a Lumilux bioluminescence plate reader (Perkin-Elmer) equipped with an automated 1536 disposable tip pipette. The pipette dispenses 3 μL/well of agonist (histamine, at twice the final concentration, where final concentration is a previously determined EC80) in assay medium, with concurrent bioluminescence detection. Agonist activity of test compounds is excluded by separate assays that measure response to test compounds immediately, without added histamine agonist.
as §3

T2 sequence (P35367 whole entry): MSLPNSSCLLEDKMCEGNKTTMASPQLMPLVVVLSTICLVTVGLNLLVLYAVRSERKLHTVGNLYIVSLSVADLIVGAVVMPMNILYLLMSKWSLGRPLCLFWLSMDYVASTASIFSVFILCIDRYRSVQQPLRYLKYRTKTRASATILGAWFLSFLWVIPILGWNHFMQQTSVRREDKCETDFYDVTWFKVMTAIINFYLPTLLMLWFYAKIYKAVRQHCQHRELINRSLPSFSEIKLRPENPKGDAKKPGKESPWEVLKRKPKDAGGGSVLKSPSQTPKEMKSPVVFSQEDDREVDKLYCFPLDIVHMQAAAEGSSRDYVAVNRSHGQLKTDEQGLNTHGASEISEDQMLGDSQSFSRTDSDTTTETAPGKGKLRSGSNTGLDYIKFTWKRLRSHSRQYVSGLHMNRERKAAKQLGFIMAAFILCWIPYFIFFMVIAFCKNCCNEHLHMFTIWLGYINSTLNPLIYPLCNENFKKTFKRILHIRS

SMILES	EC50 (human H4) [µM]	EC50 (human H1) [µM]
Cc1cc2nc(N3CCN(C)CC3)c3nncn3c2cc1F [Example 36, 8-fluoro-7-methyl-4-(4-methylpiperazin-1-yl)-[1,2,4]triazolo[4,3-a]quinoxaline]	< 10	> 10
Cc1nc2c3cc(Cl)c(Cl)cc3nc(N3CCN(C)CC3)n2n1 [Example 93, 8,9-Dichloro-2-methyl-5-(4-methylpiperazin-1-yl)-[1,2,4]triazolo[1,5-c]quinazoline]	< 10	> 10
Cc1nnc2c(N3CCN(C)CC3)nc3ccc(Cl)cc3n12 [Example 84, 8-chloro-1-methyl-4-(4-methylpiperazin-1-yl)-[1,2,4]triazolo[4,3-a]quinoxaline]	< 10	> 10
CNCCN(C)c1nc2ccc(Cl)cc2n2cnnc12 [Example 77, N^1-(8-chloro-[1,2,4]triazolo[4,3-a]quinoxalin-4-yl)-N^1,N^2-dimethylethane-1,2-diamine]	> 10	> 10
Cc1cc2c(cc1F)nc(N1CCN(C)CC1)c1nncn12 [Example 34, 7-fluoro-8-methyl-4-(4-methylpiperazin-1-yl)-[1,2,4]triazolo[4,3-a]quinoxaline]	< 10	> 10
Cn1cc2c(n1)c(N1CC[N+](C)(C)CC1)nc1ccc(Cl)cc12 [Example 154, 4-(8-Chloro-2-methyl-2H-pyrazolo[3,4-c]quinolin-4-yl)-1,1-dimethylpiperazin-1-ium]	> 10	> 10
CN1CCN(c2nc3ccc(Cl)cc3c3nnnn23)CC1 [Example 13, 9-chloro-5-(4-methylpiperazin-1-yl)tetrazolo[1,5-c]quinazoline]	< 10	> 10
Cc1nc2c3ccc(Cl)cc3nc(N3CCN(C)CC3)n2n1 [Example 105, 8-Chloro-2-methyl-5-(4-methylpiperazin-1-yl)-[1,2,4]triazolo[1,5-c]quinazoline]	< 10	> 10
FC(F)(F)c1ccc2c(c1)nc(N1CCNCC1)c1nnnn12 [Example 30, 4-(piperazin-1-yl)-7-(trifluoromethyl)tetrazolo[1,5-a]quinoxaline hydrochloride]	< 10	> 10
CN1CCN(c2nc3cc(C(F)(F)F)ccc3n3nnnc23)CC1 [Example 28, 4-(4-methylpiperazin-1-yl)-7-(trifluoromethyl)tetrazolo[1,5-a]quinoxaline]	< 10	> 10
Cc1ccc2nc(N3CCNCC3)n3nc(C)nc3c2c1 [Example 100, 2,9-Dimethyl-5-(piperazin-1-yl)-[1,2,4]triazolo[1,5-c]quinazoline]	> 10	> 10
Cc1cn2c(n1)c(N1CCN(C)CC1)nc1cc(Cl)ccc12 [Example 11, 7-Chloro-2-methyl-4-(4-methylpiperazin-1-yl)imidazo[1,2-a]quinoxaline]	< 10	> 10
CN1CCN(c2nc3ccccc3n3cnnc23)CC1 [Example 58, 4-(4-methylpiperazin-1-yl)-[1,2,4]triazolo[4,3-a]quinoxaline]	< 10	> 10
C=Cc1ccc2nc(N3CCNCC3)c3nncn3c2c1 [Example 89, 4-(piperazin-1-yl)-8-vinyl-[1,2,4]triazolo[4,3-a]quinoxaline]	< 10	> 10
CN1CCN(c2nc3ccc(Cl)cc3c3ncnn23)CC1 [Example 111, 9-chloro-5-(4-methylpiperazin-1-yl)-[1,2,4]triazolo[1,5-c]quinazoline]	< 10	> 10
Clc1ccc2nc(OC3CNC3)c3nncn3c2c1 [Example 72, 4-(azetidin-3-yloxy)-8-chloro-[1,2,4]triazolo[4,3-a]quinoxaline]	> 10	> 10
Fc1cc2nc(N3CCNCC3)c3nncn3c2cc1F [Example 38, 7,8-difluoro-4-(piperazin-1-yl)-[1,2,4]triazolo[4,3-a]quinoxaline]	< 10	> 10
Cc1ccc2nc(N3CCNCC3)c3nncn3c2c1 [Example 22, 8-Methyl-4-(piperazin-1-yl)-[1,2,4]triazolo[4,3-a]quinoxaline]	< 10	> 10
NC1CN(c2nc3ccc(Cl)cc3n3cnnc23)C1 [Example 63, 1-(8-chloro-[1,2,4]triazolo[4,3-a]quinoxalin-4-yl)azetidin-3-amine]	< 10	> 10
Cc1ccc2nc(N3CCN(C)CC3)c3nnnn3c2c1 [Example 15, 8-methyl-4-(4-methylpiperazin-1-yl)tetrazolo[1,5-a]quinoxaline]	< 10	> 10
Clc1ccc2nc(N3CCN(C4CC4)CC3)c3nncn3c2c1 [Example 64, 8-chloro-4-(4-cyclopropylpiperazin-1-yl)-[1,2,4]triazolo[4,3-a]quinoxaline]	< 10	> 10
Clc1ccc2nc(OC3CCNCC3)c3nncn3c2c1 [Example 74, 8-chloro-4-(piperidin-4-yloxy)-[1,2,4]triazolo[4,3-a]quinoxaline]	> 10	> 10

More lines, now with the values ahead:

EC50 (human H4) [µM]	EC50 (human H1) [µM]	SMILES
< 10	< 10	CN1CCN(c2nc3cc(Cl)ccc3c3nccnc23)CC1 [Example 250, 8-chloro-5-(4-methylpiperazin-1-yl)pyrazino[2,3-c]quinoline]
< 10	> 10	CN1CCN(c2nc3cc(F)c(Br)cc3n3cnnc23)CC1 [Example 185, 8-bromo-7-fluoro-4-(4-methylpiperazin-1-yl)-[1,2,4]triazolo[4,3-a]quinoxaline]
< 10	> 10	Cc1nc2c3cc(Cl)c(C(F)(F)F)cc3nc(N3CCNCC3)n2n1 [Example 132, 9-chloro-2-methyl-5-(piperazin-1-yl)-8-(trifluoromethyl)-[1,2,4]triazolo[1,5-c]quinazoline hydrochloride]
> 10	> 10	Cc1nc2c(N3CCN(C)CC3)nc3ccc(Cl)cc3c2[nH]1 [Example 162, 8-Chloro-2-methyl-4-(4-methylpiperazinyl)imidazo[4,5-c]quinoline]
< 10	> 10	Fc1cc2nc(N3CCNCC3)c3nnnn3c2cc1F [Example 191, 7,8-difluoro-4-(piperazin-1-yl)tetrazolo[1,5-a]quinoxaline]
< 10	> 10	CCc1nc2c3cc(Cl)ccc3nc(N3CCNCC3)n2n1 [Example 115, 9-Chloro-2-ethyl-5-(piperazin-1-yl)-[1,2,4]triazolo[1,5-c]quinazoline]
< 10	> 10	CN1CCN(c2nc3ccc(Cl)cc3c3c2ncn3C)CC1 [Example 159, 8-Chloro-1-methyl-4-(4-methylpiperazin-1-yl)-1H-imidazo[4,5-c]quinoline]
< 10	< 10	Cn1cc2c(n1)c(N1CCNCC1)nc1ccc(C(F)(F)F)cc12 [Example 156, 2-Methyl-4-piperazinyl-8-(trifluoromethyl)pyrazolo[3,4-c]quinoline HCl salt]
< 10	> 10	CN1CCN(c2nc3cc(Br)c(F)cc3n3cnnc23)CC1 [Example 199, 7-bromo-8-fluoro-4-(4-methylpiperazin-1-yl)-[1,2,4]triazolo[4,3-a]quinoxaline]
< 10	> 10	Brc1ccc2c(c1)nc(N1CCNCC1)c1nnnn12 [Example 194, 7-bromo-4-(piperazin-1-yl)tetrazolo[1,5-a]quinoxaline hydrochloride]
